Patent publication US10106535B2, “Histone deacetylase inhibitors and compositions and methods of use thereof” (CHDI Foundation, Inc., priority 2013, dated 2018)

How the values were obtained:
[1] = system: cellular histone deacetylase enzymatic activity in Jurkat E6-1 cells; experiment: Inhibition of cellular HDAC activity in Jurkat E6-1 cells, fluorogenic substrate Boc-Lys(Tfa)-AMC; assay type: cell-based; details: Homo sapiens, read-out: Cell IC50
Source text: Example 50: Analysis of Inhibition of Cellular HDAC Activity with Class IIa Histone Deacetylase (HDAC) Inhibitors
The potency of Class IIa Histone Deacetylase (HDAC) inhibitors is quantified by measuring the cellular histone deacetylase enzymatic activity using the fluorogenic substrate, Boc-Lys(Tfa)-AMC. After penetration in Jurkat E6-1 cells, the substrate is deacetylated to Boc-Lys-AMC. After cell lysis and cleavage by trypsin, the fluorophore AMC is released from the deacetylated substrate only. The fluorescence of the sample is directly related to the histone deacetylase activity in the sample.
Jurkat E6.1 cells are cultured according to standard cell culture protocols in Jurkat E6.1 Growth Media (RPMI without phenol red, 10% FBS, 10 mM HEPES, and 1 mM Sodium Pyruvate). Jurkat E6.1 cells are counted using a Coulter Counter and resuspended in Jurkat E6.1 growth media at a concentration of 75,000 cells/35 μl. 35 μl or 75,000 cells is seeded into Greiner microtitre assay plates. The plates are then incubated at 37° C. and 5% CO2 while other assay components are being prepared.
(§1) Serial dilutions of the HDAC inhibitors and control reference compound (1-(5-(3-((4-(1,3,4-oxadiazol-2-yl)phenoxy)methyl)-1,2,4-oxadiazol-5-yl)thiophen-2-yl)-2,2,2-trifluoroethanone) are made by first resuspending the lyophilized compound to a final concentration of 10 mM in 100% DMSO. Stocks of 70 μl aliquots of the 10 mM compound in DMSO are prepared and stored at −20° C. From one stock aliquot of each compound to be tested and the reference compound, a 16-point serial dilution is prepared according to Table 1 using a 125 μl 16-channel Matrix multi-channel pipette.
2 μl (200×) of each diluted solution and each control (full activity: 100% DMSO alone or full inhibition 1 mM) is stamped into V-bottom polypropylene 384-well compound plates using either the Bravo, Janus, or 12.5 μl 16-channel Matrix multi-channel pipette. Each well with the 200× compound solution is diluted 1:20 by the addition of 38 μl Jurkat assay buffer+DMSO (9.5% DMSO, RPMI without phenol red, 0.09% FBS, 9 mM Hepes, and 0.9 mM Sodium Pyruvate equilibrated to room temperature)
5× (500 μM) substrate is prepared just prior to the addition to the assay. The 5× substrate is prepared by diluting a 100 mM Boc-Lys(Tfa)-AMC in DMSO solution 1:200 by adding it drop-wise to Jurkat assay medium (RPMI without phenol red, 0.1% FBS, 10 mM Hepes, and 1 mM Sodium Pyruvate equilibrated to 37° C.) while vortexing at slow speed to prevent precipitation.
10 ml of 3× lysis buffer is prepared with 8.8 ml of 3× stock lysis buffer (50 mM Tris-HCl, pH 8.0, 137 mM NaCl, 2.7 mM KCl, 1 mM MgCl2, 1% Nonidet P40 Substitute equilibrated to room temperature) and 1.2 ml of 3 mg/ml Trypsin equilibrated to room temperature.
5 μl of each solution of 1:20 diluted compound from above is transferred to the Greiner microtitre assay plates with 75,000 cells/well using the Bravo. Cells are then incubated for 2 hours at 37° C. and 5% CO2. The assay is then started by adding 10 μl of 5× (500 μM) substrate to the assay plate using either the Bravo or 16-channel Matrix multi-channel pipette. The cells are then incubated for 3 hours at 37° C. and 5% CO2. Next, 25 μl of 3× lysis buffer is added to each well using either the 125 μl 16 channel pipette or the Bravo. The assay plate is then incubated overnight (15-16 hours) at 37° C. and 5% CO2. The following day, the plates are shaken on an orbital shaker for 1 minute at 900 rpm. Finally the top read fluorescence (Excitation: 355 nm, Emission: 460 nm) is measured using PerkinElmer EnVision.

[2] = target: human catalytic domain HDAC4 protein (amino acids 648-1032) (Homo sapiens (Human), UniProt P56524); experiment: Inhibition of HDAC4 catalytic domain enzymatic activity, fluorogenic substrate Boc-Lys(Tfa)-AMC; details: read-out: Biochemical HDAC-4 IC50
Source text: The potency of Class IIa Histone Deacetylase (HDAC) inhibitors is quantified by measuring the Histone Deacetylase 4 (HDAC4) catalytic domain enzymatic activity using the fluorogenic substrate, Boc-Lys(Tfa)-AMC. The substrate is deacetylated to Boc-Lys-AMC by HDAC4. Cleavage by trypsin results in the release of the fluorophore AMC from the deacetylated substrate. The fluorescence of the sample is directly related to the histone deacetylase activity in the sample.
as §1, with “100% dimethyl sulfoxide (DMSO).” for “100% DMSO.”, “of 60” for “of 70”, “Table 7” for “Table 1”, “multi-channel pipette (Matrix Technologies Ltd). […]” for “multi-channel pipette.”
5 μl of each solution of 1:20 diluted compound from above is transferred to a clear bottomed, black, 384-well assay plate using the Bravo or the Janus (384-well MDT head from Perkin Elmer). […] Finally, the fluorescence is measured (Excitation: 355 nm, Emission: 460 nm) using PerkinElmer EnVision in top read mode.

Chain of human catalytic domain HDAC4 protein (amino acids 648-1032) (P56524 648-1032): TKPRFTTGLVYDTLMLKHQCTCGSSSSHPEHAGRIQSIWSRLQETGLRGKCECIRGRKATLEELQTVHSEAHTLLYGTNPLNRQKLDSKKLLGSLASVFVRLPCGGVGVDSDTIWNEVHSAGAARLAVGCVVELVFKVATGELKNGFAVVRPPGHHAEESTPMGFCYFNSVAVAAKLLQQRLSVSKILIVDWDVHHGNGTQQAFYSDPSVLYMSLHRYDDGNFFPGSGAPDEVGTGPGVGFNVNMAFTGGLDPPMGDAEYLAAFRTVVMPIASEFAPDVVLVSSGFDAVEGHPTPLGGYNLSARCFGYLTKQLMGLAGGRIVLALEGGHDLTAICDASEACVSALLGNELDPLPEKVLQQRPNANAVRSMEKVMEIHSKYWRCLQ

| SMILES | IC50 [1] | IC50 [2] |
| --- | --- | --- |
| Cc1c(F)cccc1[C@@]1(C(=O)NO)C=C(c2ccc3onc(C)c3c2)CC1 [Example 22, (S)-1-(3-fluoro-2-methylphenyl)-N-hydroxy-3-(3-methylbenzo[d]isoxazol-5-yl)cyclopent-2-enecarboxamide] | 60 nM | – |
| Cc1c(F)cccc1[C@@]1(C(=O)NO)C=C(c2cncc(Cl)c2)CC1 [Example 11, (S)-3-(5-chloropyridin-3-yl)-1-(3-fluoro-2-methylphenyl)-N-hydroxycyclopent-2-enecarboxamide] | 120 nM | – |
| Cc1c(F)cccc1[C@@]1(C(=O)NO)C=C(c2ccc3nccnc3c2)CC1 [Example 12, (S)-1-(3-fluoro-2-methylphenyl)-N-hydroxy-3-(quinoxalin-6-yl)cyclopent-2-enecarboxamide] | 20 nM | – |
| Cc1c(F)cccc1[C@@]1(C(=O)NO)C=C(c2ccc3cnn(C)c3c2)CC1 [Example 38, (S)-1-(3-fluoro-2-methylphenyl)-N-hydroxy-3-(1-methyl-1H-indazol-6-yl)cyclopent-2-enecarboxamide] | 10 nM | – |
| Cc1c(F)cccc1[C@@]1(C(=O)NO)C=C(c2cnc(C3CC3)nc2)CC1 [Example 24, (S)-3-(2-cyclopropylpyrimidin-5-yl)-1-(3-fluoro-2-methylphenyl)-N-hydroxycyclopent-2-enecarboxamide] | 80 nM | – |
| Cc1c(F)cccc1[C@@]1(C(=O)NO)C=C(c2ccccc2)CC1 [Example 2, (S)-1-(3-fluoro-2-methylphenyl)-N-hydroxy-3-phenylcyclopent-2-enecarboxamide] | 170 nM | – |
| Cc1ncc(C2=C[C@](C(=O)NO)(c3cccc(F)c3C)CC2)cc1Cl [Example 26, (S)-3-(5-chloro-6-methylpyridin-3-yl)-1-(3-fluoro-2-methylphenyl)-N-hydroxycyclopent-2-enecarboxamide] | 80 nM | – |
| O=C(NO)[C@]1(c2ccccc2)C=C(c2ccccc2)CC1 [Example 33, (S)-N-hydroxy-1,3-diphenylcyclopent-2-enecarboxamide] | 2500 nM | – |
| Cc1c(F)cccc1[C@@]1(C(=O)NO)C=C(c2ccn3ccnc3c2)CC1 [Example 21, (S)-1-(3-fluoro-2-methylphenyl)-N-hydroxy-3-(imidazo[1,2-a]pyridin-7-yl)cyclopent-2-enecarboxamide] | 60 nM | – |
| Cc1c(F)cccc1C1(C(=O)NO)CC=C(c2ccc3nccnc3c2)CC1 (centres unmarked) [Example 45, 3′-fluoro-N-hydroxy-2′-methyl-4-(quinoxalin-6-yl)-1,2,3,6-tetrahydro-[1,1′-biphenyl]-1-carboxamide] | 520 nM | – |
| Cc1ccccc1C1=C[C@@](C(=O)NO)(c2cccc(F)c2C)CC1 [Example 3, (R)-1-(3-fluoro-2-methyl-phenyl)-N-hydroxy-3-(o-tolyl)cyclopent-2-ene-1-carboxamide] | 4600 nM | – |
| Cc1c(F)cccc1[C@]1(C(=O)NO)C=C(c2cncc(F)c2)CC1 [Example 5, (R)-1-(3-fluoro-2-methylphenyl)-3-(5-fluoropyridin-3-yl)-N-hydroxycyclopent-2-enecarboxamide] | 6800 nM | – |
| Cc1c(F)cccc1[C@@]1(C(=O)NO)C=C(c2ccnc(C(F)(F)F)c2)CC1 [Example 13, (S)-1-(3-fluoro-2-methylphenyl)-N-hydroxy-3-(2-(trifluoromethyl)pyridin-4-yl)cyclopent-2-enecarboxamide] | 270 nM | – |
| Cc1ncc(C2=C[C@@](C(=O)NO)(c3cccc(F)c3C)CC2)cn1 [Example 9, (R)-1-(3-fluoro-2-methylphenyl)-N-hydroxy-3-(2-methylpyrimidin-5-yl)cyclopent-2-enecarboxamide] | > 50000 nM | – |
| Cc1ncc(C2=C[C@](C(=O)NO)(c3cccc(F)c3C)CC2)cn1 [Example 10, (S)-1-(3-fluoro-2-methylphenyl)-N-hydroxy-3-(2-methylpyrimidin-5-yl)cyclopent-2-enecarboxamide] | 380 nM | 40 nM |
| Cc1c(F)cccc1[C@@]1(C(=O)NO)C=C(c2cncc(F)c2)CC1 [Example 6, (S)-1-(3-fluoro-2-methylphenyl)-3-(5-fluoropyridin-3-yl)-N-hydroxycyclopent-2-enecarboxamide] | 160 nM | – |
